Results published in patent publication US20220249413A1, “SWELL 1 MODULATORS FOR TREATMENT OF NON-ALCOHOLIC FATTY LIVER DISEASE, IMMUNE DEFICIENCIES, MALE INFERTILITY AND VASCULAR DISEASES” (priority 2019, published 2022).

Columns and labels:
[1] = Glucose-stimulated insulin secretion (plasma insulin and islet perifusion); assay type: in vivo, mouse; conditions: 21 weeks HFD mice
[2] = molecular target: T1, VRAC/ICl,SWELL (Homo sapiens, UniProt Q8IWT6); conditions: read-out: IC50 as VRAC/ICl,SWELL inhibitor; cited from earlier work
T1 sequence (Q8IWT6 1-810): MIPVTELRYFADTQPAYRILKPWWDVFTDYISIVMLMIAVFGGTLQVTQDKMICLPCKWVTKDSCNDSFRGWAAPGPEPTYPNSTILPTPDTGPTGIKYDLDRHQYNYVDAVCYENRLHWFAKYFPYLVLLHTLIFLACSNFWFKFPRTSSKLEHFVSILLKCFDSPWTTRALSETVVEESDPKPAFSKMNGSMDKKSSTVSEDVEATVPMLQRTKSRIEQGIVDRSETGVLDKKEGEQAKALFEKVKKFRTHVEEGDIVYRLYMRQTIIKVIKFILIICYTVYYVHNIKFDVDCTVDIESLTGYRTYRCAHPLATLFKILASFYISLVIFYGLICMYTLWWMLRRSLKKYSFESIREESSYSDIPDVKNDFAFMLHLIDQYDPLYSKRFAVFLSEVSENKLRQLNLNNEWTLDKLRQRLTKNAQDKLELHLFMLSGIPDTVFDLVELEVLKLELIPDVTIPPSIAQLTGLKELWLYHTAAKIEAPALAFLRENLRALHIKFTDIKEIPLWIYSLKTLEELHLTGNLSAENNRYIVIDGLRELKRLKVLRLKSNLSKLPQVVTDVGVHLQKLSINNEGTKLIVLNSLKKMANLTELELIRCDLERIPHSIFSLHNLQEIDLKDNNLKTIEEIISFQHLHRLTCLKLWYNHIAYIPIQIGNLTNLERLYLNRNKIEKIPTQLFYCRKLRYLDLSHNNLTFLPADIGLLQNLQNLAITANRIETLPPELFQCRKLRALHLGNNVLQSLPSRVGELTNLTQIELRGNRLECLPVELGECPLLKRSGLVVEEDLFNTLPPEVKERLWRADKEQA

[3] = Tolerability during chronic injection protocols; assay type: in vivo, mouse; conditions: daily injections for up to 8 weeks, 5 mg/kg i.p.
Text: (§1) Patients Human islets and adipocytes were obtained and cultured as described previously (Zhang et al., Nat Cell Biol, 19, 504-517, 2017; Kang et al., Nature Communications, 9, 367, 2018). The Patients involved in the study were anonymous and information such as gender, age, HbA1c, glucose levels and BMI only were available to the research team. The study was approved and carried out as per the guidelines of the University of Iowa Institutional Review Board (IRB). Animals All experimental procedures involving mice were approved by the Institutional Animal Care and Use Committee of the University of Iowa and Washington University at St. Louis. All C57BL/6 mice involved in study were purchased from Charles River Labs. Both KK.Cg-Ay/J (KKA^y) and KK.Cg-Aa/J (KKA^a) mice involved in study were gender and age-matched mice obtained from Jackson Labs (Stock No: 002468) and bred up for experiments. The mice were fed ad libitum with either regular chow (RC) or high-fat diet (Research Diets, Inc., 60 kcal % fat) with free access to water and housed in a light-, temperature- and humidity-controlled room. For high-fat diet (HFD) studies, only male mice were used and were started on HFD regimen at the age of 6-9 weeks. For all experiments involving KKA^y and KKA^a mice, both males and females were used at approximately 50/50 ratio. […] Based on GFP fluorescence, viral transduction efficiency was ˜90%.

[4] = Metabolic phenotyping: fasting glucose, GTT, ITT; assay type: in vivo, mouse
Text: Patients Human islets and adipocytes were obtained and cultured as described previously (Zhang et al., Nat Cell Biol, 19, 504-517, 2017; Kang et al., Nature Communications, 9, 367, 2018). The Patients involved in the study were anonymous and information such as gender, age, HbA1c, glucose levels and BMI only were available to the research team. The study was approved and carried out as per the guidelines of the University of Iowa Institutional Review Board (IRB). Animals All experimental procedures involving mice were approved by the Institutional Animal Care and Use Committee of the University of Iowa and Washington University at St. Louis. All C57BL/6 mice involved in study were purchased from Charles River Labs. Both KK.Cg-Ay/J (KKA^y) and KK.Cg-Aa/J (KKA^a) mice involved in study were gender and age-matched mice obtained from Jackson Labs (Stock No: 002468) and bred up for experiments. The mice were fed ad libitum with either regular chow (RC) or high-fat diet (Research Diets, Inc., 60 kcal % fat) with free access to water and housed in a light-, temperature- and humidity-controlled room. For high-fat diet (HFD) studies, only male mice were used and were started on HFD regimen at the age of 6-9 weeks. For all experiments involving KKA^y and KKA^a mice, both males and females were used at approximately 50/50 ratio. In all experiments involving mice, investigators were kept blinded both during the experiments and subsequent analysis. Smod1 (DCPIB) treatment Smod1 (DCPIB, Tocris, #D1540), was dissolved in Kolliphor® EL (Sigma, #C5135). Either vehicle (Kolliphor® EL) or Smod1 (5 mg/kg of body weight/day) were injected (intraperitoneal, i.p.) using 1 cc syringe/26G/[…] needle daily for 4-10 days, and in one experiment, daily for 8 weeks. Adenovirus Adenovirus type 5 with Ad5-RIP2-GFP (4.1×10^10 PFU/ml) and Ad5-CAG-LoxP-stop-LoxP-3× Flag-SWELL1 (1×10^10 PFU/ml) were obtained from Vector Biolabs. Adenovirus type 5 with Ad5-CMV-Cre-wt-IRES-eGFP (8×10^10 PFU/ml) was obtained from the University of Iowa Viral Vector Core. Cell culture Wildtype (WT) and SWELL1 knockout (KO) 3T3-F442A (Sigma-Aldrich) cells were cultured and differentiated as described previously (Zhang et al., Nat Cell Biol, 19, 504-517, 2017). Preadipocytes were maintained in 90% DMEM (25 mM D-Glucose and 4 mM L-Glutamine) containing 10% fetal bovine serum (FBS) and 100 IU penicillin and 100 μg/ml streptomycin on collagen-coated (rat tail type-I collagen, Corning) plates. Upon reaching confluency, the cells were differentiated in the above-mentioned media supplemented with 5 μg/ml insulin (Cell Applications) and replenished every other day with the differentiation media. For insulin signaling studies on WT and KO adipocytes with or without SWELL1 overexpression (O/E), the cells were differentiated for 10 days and transduced with Ad5-CAG-LoxP-stop-LoxP-3× Flag-SWELL1 virus (MOI 12) on day 11 in 2% FBS containing differentiation medium. To induce the overexpression, Ad5-CMV-Cre-wt-IRES-eGFP (MOI 12) was added on day 13 in 2% FBS containing differentiation medium. The cells were then switched to 10% FBS containing differentiation medium from day 15 to 17. On day 18, the cells were starved in serum free media for 6 h and stimulated with 0 and 10 nM insulin for either 5 or 15 min. Either Ad5-CAG-LoxP-stop-LoxP-3× Flag-SWELL1 or Ad5-CMV-Cre-wt-IRES-eGFP virus transduced cells alone were used as controls. Based on GFP fluorescence, viral transduction efficiency was ˜90%.
Electrophysiology Patch-clamp recordings of β-cells and mature adipocytes were performed as described previously (Zhang et al., Nat Cell Biol, 19, 504-517, 2017; Kang et al., Nature Communications, 9, 367, 2018). 3T3-F442A WT and KO preadipocytes were prepared as described in the Cell culture section above. […]

[5] = system: SWELL1; assay: SWELL1 expression in adipose tissue of treated T2D mice (Western blot); assay type: in vivo, mouse; conditions: 5 mg/kg i.p.
Text: as §1, with “˜90%. […]” for “˜90%.”

[6] = HFD-induced T2D mice and KKA^y model, 5 mg/kg i.p. 4-10 days
[7] = control KKA^a parental strain, 5 mg/kg x 4-10 days

## CCCCC1(C2CCCC2)Cc2cc(OCCCC(=O)O)c(Cl)c(Cl)c2C1=O (stereo not shown) [Smod1, 4-[(2-Butyl-6,7-dichloro-2-cyclopentyl-2,3-dihydro-1-oxo-1H-inden-5-yl)oxy]butanoic acid]
[1]
  glucose-stimulated insulin secretion (GSIS), serum insulin and perifusion of isolated islets: significantly improved
[2]
  IC50: 2 to 4 µM
[3]
  signs of toxicity: no overt signs of toxicity
[4]; HFD fed C57BL/6 mice, 5 mg/kg i.p., acute (FIG. 23)
  random glucose 30 minutes after injection: no evidence of exacerbated hyperglycemia
[4]; [6]
  fasting glucose (FG): normalized
  glucose tolerance (GTT): normalized
  insulin-tolerance (ITT): markedly improved
[4]; [7]
  glucose and insulin tolerance: nor does it alter glucose and insulin tolerance
  hypoglycemia: does not cause hypoglycemia
[4]; lean, non-T2D, glucose-tolerant mice
  FG, GTT and ITT compared to vehicle: similar
[4]; re-treated after 16 weeks of HFD feeding, HFD-induced T2D mice
  FG, GTT and ITT: marked improvements
[5]; HFD-fed T2D mice
  augmentation of SWELL1 expression in adipose tissue: 2.3 fold
[5]; KKA^y mice
  adipose SWELL1 expression: levels comparable to both non-T2D C57/B6 mice and to the parental KKA^a parental strain
